Measured values reported in PubChem BioAssay AID328 (DTP/NCI, 2004).
Toxic doses and inconclusive results are not listed. How the source made its calls: active means survival T/C of 150% or more; inactive means T/C below 125% in these data.

System: BDF1 mice, P388 leukemia ip, median survival T/C
Test: NCI In Vivo Anticancer Drug Screen. Data for tumor model P388 Leukemia (intraperitoneal) in B6D2F1 (BDF1) mice
Details: endpoint: median survival time, higher = longer survival
Method in brief: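 Compound-treated tumour-bearing mice were compared with vehicle-treated controls. Survival was recorded, and the value is the treated-group measurement divided by the control-group measurement (T/C).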

[1] = dose: 100.0 mg/kg/injection, schedule: Q01DX009 (ip), vehicle: Klucel (hydroxypropylcellulose) (HPC)
[2] = dose: 100.0 mg/kg/injection, schedule: Q04DX003 (ip), vehicle: Klucel (hydroxypropylcellulose) (HPC)
[3] = dose: 200.0 mg/kg/injection, schedule: Q01DX009 (ip), vehicle: Klucel (hydroxypropylcellulose) (HPC)
[4] = dose: 200.0 mg/kg/injection, schedule: Q04DX003 (ip), vehicle: Klucel (hydroxypropylcellulose) (HPC)
[5] = dose: 100.0 mg/kg/injection, schedule: Q01DX009 (ip), vehicle: saline with Tween-80
[6] = dose: 200.0 mg/kg/injection, schedule: Q01DX009 (ip), vehicle: saline with Tween-80
[7] = dose: 50.0 mg/kg/injection, schedule: Q01DX009 (ip), vehicle: saline
[8] = dose: 50.0 mg/kg/injection, schedule: Q01DX009 (ip), vehicle: saline with Tween-80
[9] = dose: 100.0 mg/kg/injection, schedule: Q04DX003 (ip), vehicle: saline with Tween-80
[10] = dose: 200.0 mg/kg/injection, schedule: Q04DX003 (ip), vehicle: saline with Tween-80
[11] = dose: 12.5 mg/kg/injection, schedule: Q01DX009 (ip), vehicle: saline
[12] = dose: 25.0 mg/kg/injection, schedule: Q01DX009 (ip), vehicle: saline

Measured: T/C

CC(=O)O[C@]1(C(C)=O)CC[C@H]2[C@@H]3C=C(Cl)C4=CC(=O)[C@@H]5C[C@@H]5[C@]4(C)[C@H]3CC[C@@]21C
inactive: [1] 95 % of control | [2] 104 % of control | [3] 91 % of control | [4] 108 % of control | dose: 400.0 mg/kg/injection, schedule: Q04DX003 (ip), vehicle: Klucel (hydroxypropylcellulose) (HPC) 108 % of control

CN=NNc1ccccc1
inactive: dose: 66.0 mg/kg/injection, schedule: Q04DX003 (ip), vehicle: saline with Tween-80 120 % of control | dose: 75.0 mg/kg/injection, schedule: Q01DX009 (ip), vehicle: other 118 % of control | dose: 75.0 mg/kg/injection, schedule: Q04DX003 (ip), vehicle: saline with Tween-80 120 % of control | dose: 150.0 mg/kg/injection, schedule: Q04DX003 (ip), vehicle: saline with Tween-80 100 % of control | dose: 225.0 mg/kg/injection, schedule: Q04DX003 (ip), vehicle: saline with Tween-80 95 % of control | dose: 300.0 mg/kg/injection, schedule: Q04DX003 (ip), vehicle: saline with Tween-80 100 % of control

Nc1ccccc1C(=O)N/N=C\c1ccc(O)cc1
inactive: [5] 110 % of control | [6] 94 % of control

FC(F)(F)c1nc2nccnc2[nH]1
inactive: [7] 100 % of control | dose: 100.0 mg/kg/injection, schedule: Q01DX009 (ip), vehicle: saline 100 % of control | dose: 200.0 mg/kg/injection, schedule: Q01DX009 (ip), vehicle: saline 108 % of control | [4] 88 % of control

ClC1C2c3ccccc3C(C1Cl)[n+]1ccccc12 (configuration not stated)
inactive: dose: 8.75 mg/kg/injection, schedule: Q01DX009 (ip), vehicle: Klucel (hydroxypropylcellulose) (HPC) 100 % of control | dose: 12.5 mg/kg/injection, schedule: Q04DX003 (ip), vehicle: Klucel (hydroxypropylcellulose) (HPC) 100 % of control | dose: 17.5 mg/kg/injection, schedule: Q01DX009 (ip), vehicle: Klucel (hydroxypropylcellulose) (HPC) 100 % of control | dose: 25.0 mg/kg/injection, schedule: Q04DX003 (ip), vehicle: Klucel (hydroxypropylcellulose) (HPC) 95 % of control

CCCCCCCCCCCCCCOc1ccc(Cc2ccccc2)cc1
inactive: [2] 100 % of control | [4] 90 % of control

CCc1ccccc1NC(=O)N1CCOCC1
inactive: [8] 94 % of control | [5] 102 % of control | [6] 109 % of control

COc1cc2c(cc1C(C)C)CCC1C(C)(C#N)CCCC21C (configuration not stated)
inactive: [5] 110 % of control | [6] 110 % of control | dose: 400.0 mg/kg/injection, schedule: Q01DX009 (ip), vehicle: saline with Tween-80 95 % of control

O=C(O)/C=C/C(=O)Nc1ccc(I)cc1
inactive: [8] 109 % of control | [5] 109 % of control | [6] 104 % of control

O=c1[nH]c2ccc(I)cc2c(=O)o1
inactive: [9] 109 % of control | [10] 104 % of control | dose: 400.0 mg/kg/injection, schedule: Q04DX003 (ip), vehicle: saline with Tween-80 109 % of control

C=CCOc1ccccn1
inactive: dose: 50.0 mg/kg/injection, schedule: Q04DX003 (ip), vehicle: saline with Tween-80 90 % of control | [9] 104 % of control | [10] 113 % of control

CC1(C)OCC2OC3(C(=O)O)OC(C)(C)OC3C2O1 (configuration not stated)
inactive: dose: 25.0 mg/kg/injection, schedule: Q01DX009 (ip), vehicle: water 100 % of control | dose: 50.0 mg/kg/injection, schedule: Q01DX009 (ip), vehicle: water 96 % of control | dose: 100.0 mg/kg/injection, schedule: Q01DX009 (ip), vehicle: water 101 % of control | dose: 200.0 mg/kg/injection, schedule: Q01DX009 (ip), vehicle: water 99 % of control | dose: 400.0 mg/kg/injection, schedule: Q01DX009 (ip), vehicle: water 101 % of control

Cc1cccnc1NC(=O)/C=C/C(=O)O
inactive: dose: 3.12 mg/kg/injection, schedule: Q01DX001 (ip), vehicle: saline 100 % of control | dose: 6.25 mg/kg/injection, schedule: Q01DX001 (ip), vehicle: saline 100 % of control | dose: 12.5 mg/kg/injection, schedule: Q01DX001 (ip), vehicle: saline 100 % of control | [11] 95 % of control | dose: 12.5 mg/kg/injection, schedule: Q04DX003 (ip), vehicle: saline 100 % of control | dose: 18.0 mg/kg/injection, schedule: Q01DX001 (ip), vehicle: saline 109 % of control | [12] 100 % of control | dose: 28.0 mg/kg/injection, schedule: Q01DX001 (ip), vehicle: saline 100 % of control | dose: 40.0 mg/kg/injection, schedule: Q01DX001 (ip), vehicle: saline 104 % of control

CCOC(=O)Nc1cc(NC(C)CCCN(CC)CC)c2ncc(-c3cc(OC)c(OC)c(OC)c3)nc2n1 (configuration not stated) (tested in a mixture with another compound)
inactive: [12] 115 % of control | [7] 120 % of control | dose: 50.0 mg/kg/injection, schedule: Q04DX003 (ip), vehicle: saline 95 % of control | dose: 100.0 mg/kg/injection, schedule: Q04DX003 (ip), vehicle: saline 109 % of control

Nc1ccc(CCCCc2ccccc2)cc1
inactive: dose: 7.03 mg/kg/injection, schedule: Q04DX003 (ip), vehicle: saline 104 % of control | [11] 109 % of control | dose: 14.06 mg/kg/injection, schedule: Q04DX003 (ip), vehicle: saline 113 % of control | [12] 113 % of control | dose: 28.12 mg/kg/injection, schedule: Q04DX003 (ip), vehicle: saline 109 % of control | [7] 113 % of control | dose: 56.25 mg/kg/injection, schedule: Q04DX003 (ip), vehicle: saline 116 % of control | dose: 75.0 mg/kg/injection, schedule: Q01DX009 (ip), vehicle: saline 109 % of control

O=C(/C=C/c1cccc(Cl)c1)c1ccccc1
inactive: [1] 115 % of control

COC1=CC(=O)C(Cl)=C(OC)C1=O
inactive: dose: 0.78 mg/kg/injection, schedule: Q01DX009 (ip), vehicle: saline 113 % of control | dose: 1.56 mg/kg/injection, schedule: Q01DX009 (ip), vehicle: saline 113 % of control | dose: 3.13 mg/kg/injection, schedule: Q01DX009 (ip), vehicle: saline with Tween-80 110 % of control | dose: 3.13 mg/kg/injection, schedule: Q01DX009 (ip), vehicle: saline 104 % of control

C=C1C(=O)OC(/C=C(\C)CO)C1C(C/C(C)=C/CO)OC(=O)/C(C)=C\C (configuration not stated)
inactive: dose: 12.5 mg/kg/injection, schedule: Q01DX009 (ip), vehicle: Klucel (hydroxypropylcellulose) (HPC) 111 % of control | dose: 25.0 mg/kg/injection, schedule: Q01DX009 (ip), vehicle: Klucel (hydroxypropylcellulose) (HPC) 111 % of control | dose: 50.0 mg/kg/injection, schedule: Q01DX009 (ip), vehicle: Klucel (hydroxypropylcellulose) (HPC) 109 % of control | [1] 94 % of control | [3] 94 % of control

O=C(O)CNC(=O)COc1ccc(Cl)c(Cl)c1
inactive: [8] 94 % of control | [5] 92 % of control | [6] 124 % of control
